# Assays:
# [1] = tested on: AECO063 (ATCC25922 bearing an acrAB mutation); test: microbe, parasite or virus in culture; format: cell-based, E. coli; conditions: Escherichia coli, ATCC25922, read-out: MIC AECO063
# Method in brief: (§1)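 CLSI-guided microdilution: bacteria passaged overnight at 35° C. on Mueller-Hinton agar, tested in cation-adjusted broth at a final 3×10^5–7×10^5 CFU/mL across 2-fold drug dilutions, read after 18-24 h at 35° C.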
# [2] = tested on: ASAU001 (laboratory strain of S. aureus, ATCC29213); test: MIC broth microdilution, ASAU001; format: cell-based; conditions: Staphylococcus aureus, ATCC29213, read-out: MIC ASAU001
# Method in brief: as §1
# [3] = tested on: AABA1060 (clinical isolate of Acinetobacter baumannii); test: MIC broth microdilution, AABA1060; format: cell-based; conditions: Acinetobacter baumannii, read-out: MIC AABA1060
# Method in brief: as §1
# [4] = tested on: AECO001 HSA AGP; test: MIC broth microdilution, AECO001 HSA AGP; format: cell-based, E. coli; conditions: Escherichia coli
# Method in brief: as §1
# [5] = tested on: APAE006 in the presence of 8 micrograms per milliliter of polymyxin B nonapeptide; format: cell-based, P. aeruginosa; conditions: in the presence of 8 micrograms per milliliter of polymyxin B nonapeptide
# Method in brief: (§2)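 Strains were grown overnight at 35° C. on Mueller-Hinton agar, suspended to 0.5 McFarland and diluted to a final 3×10^5–7×10^5 CFU/mL. They were then exposed to 2-fold serial drug dilutions in cation-adjusted Mueller-Hinton broth and incubated 18-24 hours at 35° C.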
# [6] = tested on: AECO001 (ATCC25922); test: MIC broth microdilution, AECO001; format: cell-based, E. coli; conditions: Escherichia coli, ATCC25922, read-out: MIC AECO001
# Method in brief: as §1
# [7] = tested on: APAE001 (ATCC27853); test: MIC broth microdilution, APAE001; format: cell-based, P. aeruginosa; conditions: Pseudomonas aeruginosa, ATCC27853, read-out: MIC APAE001, APAE001 is ATCC27853
# Method in brief: as §1
# [8] = tested on: APAE006 (strain of P. aeruginosa in which all efflux pumps are inactivated); test: microbe, parasite or virus in culture; format: cell-based; conditions: Pseudomonas aeruginosa, read-out: MIC APAE006, P. aeruginosa, all efflux pumps inactivated
# Method in brief: as §2
Compound,MIC [1] [µg/mL],MIC [2] [µg/mL],MIC [3] [µg/mL],MIC [4] [µg/mL],MIC APAE006 + PMBN [5],MIC [6] [µg/mL],MIC [7] [µg/mL],MIC [8] [µg/mL]
C[C@@H](N)[C@H](NC(=O)c1ccc(/C=C/C#Cc2ccncc2)cc1)C(=O)NO [Example 114-8],< 2,16 to 64,2 to 16,2 to 16,A (MIC's of 2.0 μg/mL or less = A),< 2,< 2,< 2
C[C@@H](N)[C@H](NC(=O)c1ccc(/C=C/C#Cc2cccnc2)cc1)C(=O)NO [Example 114-9],< 2,16 to 64,2 to 16,2 to 16,A (MIC's of 2.0 μg/mL or less = A),2 to 16,< 2,< 2
C[C@@H](N)[C@H](NC(=O)c1ccc(/C=C/C#Cc2ccc(Cl)cc2)cc1)C(=O)NO [Example 114-10],< 2,16 to 64,2 to 16,2 to 16,A (MIC's of 2.0 μg/mL or less = A),< 2,2 to 16,< 2
C[C@@H](N)[C@H](NC(=O)c1ccc(C#Cc2ccc(CNC3CC3)cc2)cc1)C(=O)NO [Example 115-2],< 2,> 64,2 to 16,2 to 16,A (MIC's of 2.0 μg/mL or less = A),< 2,< 2,< 2
C[C@@H](N)[C@H](NC(=O)c1ccc(C#Cc2ccc(CN3CCC(F)(F)CC3)cc2)cc1)C(=O)NO [Example 115-3],< 2,> 64,2 to 16,< 2,A (MIC's of 2.0 μg/mL or less = A),< 2,2 to 16,< 2
C[C@@H](N)[C@H](NC(=O)c1ccc(C#Cc2ccc(CN3CCN(C)CC3)cc2)cc1)C(=O)NO [Example 115-4],< 2,> 64,16 to 64,16 to 64,A (MIC's of 2.0 μg/mL or less = A),2 to 16,< 2,< 2
C[C@@H](N)[C@H](NC(=O)c1ccc(C#Cc2ccc(CN(C)Cc3cccnc3)cc2)cc1)C(=O)NO [Example 115-5],< 2,> 64,2 to 16,2 to 16,A (MIC's of 2.0 μg/mL or less = A),< 2,2 to 16,< 2
C[C@@H](N)[C@H](NC(=O)c1ccc(C#Cc2ccc(CN3CCC(O)C3)cc2)cc1)C(=O)NO (stereo partly drawn) [Example 115-6],< 2,> 64,16 to 64,2 to 16,A (MIC's of 2.0 μg/mL or less = A),2 to 16,< 2,< 2
C[C@@H](N)[C@H](NC(=O)c1ccc(C#Cc2ccc(CN3CCN(S(C)(=O)=O)CC3)cc2)cc1)C(=O)NO [Example 115-7],< 2,> 64,2 to 16,2 to 16,A (MIC's of 2.0 μg/mL or less = A),< 2,2 to 16,< 2
COC1CCN(Cc2ccc(C#Cc3ccc(C(=O)N[C@H](C(=O)NO)[C@@H](C)N)cc3)cc2)CC1 [Example 115-8],< 2,> 64,2 to 16,2 to 16,A (MIC's of 2.0 μg/mL or less = A),< 2,< 2,< 2
"NCC(=O)NCc1ccc(C#Cc2ccc(C(=O)N[C@@H](CN)C(=O)NO)cc2)cc1 [Example 116-1, (S)—N-(3-amino-1-(hydroxyamino)-1-oxopropan-2-yl)-4-((4-((2-aminoacetamido)methyl)phenyl)ethynyl)benzamide]",16 to 64,16 to 64,16 to 64,16 to 64,A (MIC's of 2.0 μg/mL or less = A),16 to 64,2 to 16,< 2
"CNC(=O)[C@@H](NC(=O)c1ccc(C#Cc2ccc(CN3CCOCC3)cc2)cc1)[C@@H](C)N [Example 117-1, N-((1S,2R)-2-Amino-1-methylcarbamoyl-propyl)-4-(4-morpholin-4-ylmethyl-phenylethynyl)-benzamide]",> 64,> 64,> 64,> 64,D (MIC's of greater than 64.0 μg/mL = D),> 64,> 64,> 64

# From patent publication US9617256B2 (priority 2007, dated 2017)
